{"source": "patent US10660967B2", "about": "“Curcumin conjugates and methods of use thereof” (priority 2016, dated 2020)", "key": {"[1]": {"test_system": "A-549 (lung) carcinoma cell line", "assay": "Anti-tumor properties, MTT", "format": "cell-based", "conditions": "Homo sapiens, A549"}, "[2]": {"test_system": "lipopolysaccharide-stimulated peritoneal macrophages", "assay": "Production of nitric oxide by lipopolysaccharide-stimulated peritoneal macrophages (Greiss reagent)", "format": "cell-based", "design": "Potency (%): % inhibition of nitric oxide production relative to lipopolysaccharide-stimulated macrophages: concentration or dose not given beside the values", "conditions": "LPS-stimulated peritoneal macrophages; for Nitric oxide (nitrite) concentration, μM (average ± SD): 24 h, nitrite by Greiss reagent", "method_in_brief": "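Macrophages in nitrite-free medium with 0.1% BSA were stimulated with LPS at 0.5–10 ng/ml, some wells also receiving epinephrine, norepinephrine or dopamine at […], for 24 h at 37° C. Nitrite in supernatants was measured with Greiss reagent, 15 min at room temperature, absorbance 532 nm.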"}, "[3]": {"test_system": "Streptococcus pyogenes ATCC19615", "assay": "Antimicrobial MIC, agar dilution"}, "[4]": {"test_system": "Salmonella typhi ATCC19430", "assay": "Antimicrobial MIC, agar dilution", "format": "cell-based", "conditions": "Salmonella enterica, read-out: Minimum inhibitory concentration (MIC)"}, "[5]": {"test_system": "PC3 (prostate) carcinoma cell line", "assay": "Anti-tumor properties, MTT", "format": "cell-based", "conditions": "Homo sapiens"}, "[6]": {"test_system": "Staphylococcus aureus ATCC25923", "assay": "Antimicrobial MIC, agar dilution"}, "[7]": {"test_system": "Pseudomonas aeruginosa ATCC27853", "assay": "Antimicrobial MIC, agar dilution"}, "[8]": {"test_system": "PHA-stimulated splenocytes", "assay": "Proliferative response of PHA-stimulated splenocytes (MTT assay)", "format": "cell-based", "conditions": "PHA 5 μg/ml, 72 hr; compounds at 5 μM (method says 10 μM); ratio of O.D. versus vehicle control", "method_in_brief": "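Freshly prepared splenocytes (1×10^6 cells/well) were cultured for 72 h at 37° C with compound at 10 μM final, with or without PHA (5 μg/ml). Viability was read by MTT (4 h), with absorbance at 570 nm against 690 nm reference. Stimulation index is the OD ratio of treated versus vehicle cultures.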"}, "[9]": {"test_system": "MCF7 (breast) carcinoma cell line", "assay": "Anti-tumor properties, MTT", "format": "cell-based", "conditions": "Homo sapiens, MCF7; read-out: IC50 (μM) MCF7 (breast)", "method_in_brief": "(§1)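 Cells seeded at 10×10^3 per well for 24 h, then exposed to compound in serum-free medium (final up to 100 μM, 0.5% DMSO vehicle) for 72 h in triplicate. Viability by MTT reduction (4 h, SDS solubilised), absorbance 595 nm/ref 620 nm; IC50 from survival curves.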"}, "[10]": {"test_system": "HCT116 (colon) carcinoma cell line", "assay": "Anti-tumor properties, MTT", "format": "cell-based", "conditions": "Homo sapiens, HCT-116; read-out: IC50 (μM) HCT116 (colon)", "method_in_brief": "as §1"}, "[11]": {"test_system": "HepG2 (hepatocellular) carcinoma cell line", "assay": "Anti-tumor properties, MTT", "format": "cell-based", "conditions": "Homo sapiens, HepG2; read-out: IC50 (μM) HepG2 (liver)", "method_in_brief": "as §1"}, "[12]": {"test_system": "Candida albicans (local isolate)", "assay": "Antimicrobial MIC, agar dilution", "conditions": "Candida albicans, read-out: Minimum inhibitory concentration (MIC)"}, "gastric mucosa": {"test_system": "gastric mucosa", "assay": "Ulcerogenic liability (ulcer index)", "format": "in vivo, albino mice", "conditions": "orally, three successive days, 10 mg/kg indomethacin mol equivalent; for Number of animals with ulcer: 6 animals per group; for Ulcer index: sum of the three values", "method_in_brief": "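Albino mice were fasted 18 h before dosing, and controls got saline with a few drops of Tween 80. Gastric mucosa was checked under a 10× lens for lesions and erosions. The ulcer index combines percentage incidence divided by 10, mean ulcers per stomach and mean severity.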"}, "[13]": {"conditions": "ATCC19615, 18 h, read-out: Minimum inhibitory concentration (MIC)"}, "[14]": {"conditions": "ATCC19615, read-out: Minimum inhibitory concentration (MIC)"}, "[15]": {"conditions": "ATCC25923, 18 h, read-out: Minimum inhibitory concentration (MIC)"}, "[16]": {"conditions": "ATCC25923, read-out: Minimum inhibitory concentration (MIC)"}, "[17]": {"conditions": "ATCC27853, 18 h, read-out: Minimum inhibitory concentration (MIC)"}, "[18]": {"conditions": "ATCC27853, read-out: Minimum inhibitory concentration (MIC)"}}, "note": "Read-outs that look alike come from different tables or passages of the source.", "data": [{"smiles": "COc1cc(/C=C/C(=O)CC(=O)/C=C/c2ccc(OC(=O)CCN)c(OC)c2)ccc1OC(=O)CCN.Cl.Cl", "note": "[HCl-β-Ala-Cur, 3,3′-((((1E,6E)-3,5-dioxohepta-1,6-diene-1,7-diyl)bis(2-methoxy-4,1-phenylene))bis(oxy))bis(3-oxopropan-1-aminium) chloride]", "values": [{"measurement": "IC50", "setting": "[1]", "result": 32.4, "unit": "µM"}, {"measurement": "Potency (%): % inhibition of nitric oxide production relative to lipopolysaccharide-stimulated macrophages", "setting": "[2]", "result": 41.68, "unit": "%"}, {"measurement": "Nitric oxide (nitrite) concentration, μM (average ± SD)", "setting": "[2]", "result": "15.93 ± 0.29", "unit": "µM"}, {"measurement": "MIC", "setting": "[3]; [13]", "result": 1, "unit": "µg/mL"}, {"measurement": "MIC", "setting": "[3]; [14]", "result": 1.71, "unit": "µM"}, {"measurement": "MIC", "setting": "[4]; 18 h", "result": 1, "unit": "µg/mL"}, {"measurement": "MIC", "setting": "[4]", "result": 1.71, "unit": "µM"}, {"measurement": "IC50", "setting": "[5]", "result": 30.2, "unit": "µM"}, {"measurement": "MIC", "setting": "[6]; [15]", "result": 1, "unit": "µg/mL"}, {"measurement": "MIC", "setting": "[6]; [16]", "result": 1.71, "unit": "µM"}, {"measurement": "MIC", "setting": "[7]; [17]", "result": 1, "unit": "µg/mL"}, {"measurement": "MIC", "setting": "[7]; [18]", "result": 1.71, "unit": "µM"}, {"measurement": "Stimulation Index (average ± SD)", "setting": "[8]", "result": "1.39 ± 0.98"}, {"measurement": "IC50", "setting": "[9]", "result": 9.36, "unit": "µM"}, {"measurement": "IC50", "setting": "[10]", "result": 42.3, "unit": "µM"}, {"measurement": "IC50", "setting": "[11]", "result": 36.4, "unit": "µM"}, {"measurement": "MIC", "setting": "[12]; 18 h", "result": 0.5, "unit": "µg/mL"}, {"measurement": "MIC", "setting": "[12]", "result": 0.857, "unit": "µM"}, {"measurement": "% Incidence of ulcer divided by 10", "setting": "gastric mucosa", "result": 0}, {"measurement": "Average of ulcer number", "setting": "gastric mucosa", "result": 0}, {"measurement": "Average severity of ulcer", "setting": "gastric mucosa", "result": 0}, {"measurement": "Number of animals with ulcer", "setting": "gastric mucosa", "result": "0/6"}, {"measurement": "Ulcer index", "setting": "gastric mucosa", "result": 0}]}, {"smiles": "COc1cc(/C=C/C(=O)CC(=O)/C=C/c2ccc(OC(=O)[C@@H](C)NC(=O)OCc3ccccc3)c(OC)c2)ccc1OC(=O)[C@@H](C)NC(=O)OCc1ccccc1", "note": "[Z-D-Ala-Cur, ((1E,6E)-3,5-dioxohepta-1,6-diene-1,7-diyl)bis(2-methoxy-4,1-phenylene) (2R,2′R)-bis(2-(((benzyloxy)carbonyl)amino)propanoate)]", "values": [{"measurement": "IC50", "setting": "[1]", "result": "> 100", "unit": "µM"}, {"measurement": "Potency (%): % inhibition of nitric oxide production relative to lipopolysaccharide-stimulated macrophages", "setting": "[2]", "result": 35.45, "unit": "%"}, {"measurement": "Nitric oxide (nitrite) concentration, μM (average ± SD)", "setting": "[2]", "result": "17.63 ± 0.92", "unit": "µM"}, {"measurement": "MIC", "setting": "[3]; [13]", "result": 0.125, "unit": "µg/mL"}, {"measurement": "MIC", "setting": "[3]; [14]", "result": 0.161, "unit": "µM"}, {"measurement": "MIC", "setting": "[4]; 18 h", "result": 0.5, "unit": "µg/mL"}, {"measurement": "MIC", "setting": "[4]", "result": 0.642, "unit": "µM"}, {"measurement": "IC50", "setting": "[5]", "result": "> 100", "unit": "µM"}, {"measurement": "MIC", "setting": "[6]; [15]", "result": 0.5, "unit": "µg/mL"}, {"measurement": "MIC", "setting": "[6]; [16]", "result": 0.642, "unit": "µM"}, {"measurement": "MIC", "setting": "[7]; [17]", "result": 1, "unit": "µg/mL"}, {"measurement": "MIC", "setting": "[7]; [18]", "result": 1.28, "unit": "µM"}, {"measurement": "Stimulation Index (average ± SD)", "setting": "[8]", "result": "1.59 ± 0.14"}, {"measurement": "IC50", "setting": "[9]", "result": 73, "unit": "µM"}, {"measurement": "IC50", "setting": "[10]", "result": "> 100", "unit": "µM"}, {"measurement": "IC50", "setting": "[11]", "result": "> 100", "unit": "µM"}, {"measurement": "MIC", "setting": "[12]; 18 h", "result": 0.5, "unit": "µg/mL"}, {"measurement": "MIC", "setting": "[12]", "result": 0.642, "unit": "µM"}, {"measurement": "% Incidence of ulcer divided by 10", "setting": "gastric mucosa", "result": 0}, {"measurement": "Average of ulcer number", "setting": "gastric mucosa", "result": 0}, {"measurement": "Average severity of ulcer", "setting": "gastric mucosa", "result": 0}, {"measurement": "Number of animals with ulcer", "setting": "gastric mucosa", "result": "0/6"}, {"measurement": "Ulcer index", "setting": "gastric mucosa", "result": 0}]}, {"smiles": "COc1cc(/C=C/C(=O)CC(=O)/C=C/c2ccc(OC(=O)[C@@H](CCSC)NC(=O)OCc3ccccc3)c(OC)c2)ccc1OC(=O)[C@@H](CCSC)NC(=O)OCc1ccccc1", "note": "[Z-D-Met-Cur, ((1E,6E)-3,5-dioxohepta-1,6-diene-1,7-diyl)bis(2-methoxy-4,1-phenylene) (2R,2′R)-bis(2-(((benzyloxy)carbonyl)amino)-4-(methylthio)butanoate)]", "values": [{"measurement": "IC50", "setting": "[1]", "result": "> 100", "unit": "µM"}, {"measurement": "Potency (%): % inhibition of nitric oxide production relative to lipopolysaccharide-stimulated macrophages", "setting": "[2]", "result": 40.84, "unit": "%"}, {"measurement": "Nitric oxide (nitrite) concentration, μM (average ± SD)", "setting": "[2]", "result": "16.16 ± 1.90", "unit": "µM"}, {"measurement": "MIC", "setting": "[3]; [13]", "result": 0.125, "unit": "µg/mL"}, {"measurement": "MIC", "setting": "[3]; [14]", "result": 0.139, "unit": "µM"}, {"measurement": "MIC", "setting": "[4]; 18 h", "result": 0.5, "unit": "µg/mL"}, {"measurement": "MIC", "setting": "[4]", "result": 0.556, "unit": "µM"}, {"measurement": "IC50", "setting": "[5]", "result": "> 100", "unit": "µM"}, {"measurement": "MIC", "setting": "[6]; [15]", "result": 0.125, "unit": "µg/mL"}, {"measurement": "MIC", "setting": "[6]; [16]", "result": 0.139, "unit": "µM"}, {"measurement": "MIC", "setting": "[7]; [17]", "result": 1, "unit": "µg/mL"}, {"measurement": "MIC", "setting": "[7]; [18]", "result": 1.11, "unit": "µM"}, {"measurement": "Stimulation Index (average ± SD)", "setting": "[8]", "result": "1.37 ± 0.29"}, {"measurement": "IC50", "setting": "[9]", "result": "> 100", "unit": "µM"}, {"measurement": "IC50", "setting": "[10]", "result": "> 100", "unit": "µM"}, {"measurement": "IC50", "setting": "[11]", "result": "> 100", "unit": "µM"}, {"measurement": "MIC", "setting": "[12]; 18 h", "result": 0.125, "unit": "µg/mL"}, {"measurement": "MIC", "setting": "[12]", "result": 0.139, "unit": "µM"}, {"measurement": "% Incidence of ulcer divided by 10", "setting": "gastric mucosa", "result": 0}, {"measurement": "Average of ulcer number", "setting": "gastric mucosa", "result": 0}, {"measurement": "Average severity of ulcer", "setting": "gastric mucosa", "result": 0}, {"measurement": "Number of animals with ulcer", "setting": "gastric mucosa", "result": "0/6"}, {"measurement": "Ulcer index", "setting": "gastric mucosa", "result": 0}]}]}
